Drawing on patent US9067937B2 (priority 2012, dated 2015), this text covers IC50 for 15 compounds.

Counter-ions that a name gives are not always drawn.

The IC50 is the concentration that gives 50% inhibition.

For one assay, the system named is T47D cells. Nature of the assay: Cell-based assay, anti-proliferative activity (Cell Counting Kit-8, 72 hours). On the set-up: species or system human. The following applies: Homo sapiens, T47D, 72 h, read-out: IC50 (μM) (T47D). How it is done:
(§1) Active candidate inhibitors against MELK were evaluated for their target-specific cytotoxicity using 22Rv1, T47D, A549, DU4475 and HT-1197 cells was used for negative control. 100 micro-L of cell suspension was seeded onto 96-well microtiter plate (ViewPlate-96FTC, PerkinElmer). The initial cell concentration of 22Rv1, T47D, A549, DU4475, and HT1197 were 3,000 cells/well, 2,000 cells/well and 2,500 cells/well, respectively. Cellular growth was determined using Cell Counting Kit-8 (DOJINDO) at 72 hours after the exposure of the candidate inhibitors. […] Accurate IC50 values were calculated as described previously.
(Tetrazolium dyes change colour on reduction, which living cells bring about.)

The next assay has as its system 22Rv1 cells. The assay is described as above. Set-up: species or system human. The settings on record: Homo sapiens, 22Rv1, 72 h, read-out: IC50 (μM) (22Rvl). How it is done: as §1
The test system of another assay is DU4475 cells. Described as above. On the set-up: species or system human. The settings on record: Homo sapiens, DU-4475, 72 h, read-out: IC50 (μM) (DU4475). How it is done: as §1
In another assay the test system is A549 cells. The description is as above. On the set-up: species or system human. The settings on record: Homo sapiens, A549, 72 h, read-out: IC50 (μM) (A549). How it is done:
as §1

The target in a further assay is MELK (Homo sapiens, UniProt Q14680). Put plainly: Kinase assay (IMAP fluorescence polarization, FITC-labeled histone H3 peptide). It is filed as biochemical. The settings on record: 50 micro-M ATP. How it is done: MELK activity was determined in the presence or absence of compounds using fluorescein isothiocyanate-labeled (FITC-labeled) histone H3 peptide as a substrate. […] The serially diluted compounds, 0.8 ng/micro-L […] (Carna Biosciences) and 100 nM FITC-labeled histone H3 peptide were reacted in a reaction buffer (20 mM HEPES, 0.01% Tween-20, 0.3 mM MgCl2, 2 mM dithiothreitol, 50 micro-M ATP, pH 7.4) at room temperature for 1 hour. The reaction was stopped by the addition of three fold assay volume of progressive binding solution. […] IC50 values were calculated by nonlinear four parameter fit using SigmaPlot, version 10.0 (Systat Software, Inc.).
In general terms: Fluorescence polarisation rises when a labelled molecule tumbles more slowly, as on binding a larger partner.

The subject of another assay is HT1197 cells. Put plainly: Cell-based assay, anti-proliferative activity, MELK-negative control (Cell Counting Kit-8, 72 hours). On the set-up: species or system human. The settings on record: Homo sapiens, HT1197, 72 h, read-out: IC50 (μM) (HTll97). How it is done: 100 micro-L of cell suspension was seeded onto 96-well microtiter plate (ViewPlate-96FTC, PerkinElmer). The initial cell concentration of 22Rv1, T47D, A549, DU4475, and HT1197 were 3,000 cells/well, 2,000 cells/well and 2,500 cells/well, respectively. Cellular growth was determined using Cell Counting Kit-8 (DOJINDO) at 72 hours after the exposure of the candidate inhibitors. […] Accurate IC50 values were calculated as described previously.

MELK, sequence (Q14680 whole entry, looked up): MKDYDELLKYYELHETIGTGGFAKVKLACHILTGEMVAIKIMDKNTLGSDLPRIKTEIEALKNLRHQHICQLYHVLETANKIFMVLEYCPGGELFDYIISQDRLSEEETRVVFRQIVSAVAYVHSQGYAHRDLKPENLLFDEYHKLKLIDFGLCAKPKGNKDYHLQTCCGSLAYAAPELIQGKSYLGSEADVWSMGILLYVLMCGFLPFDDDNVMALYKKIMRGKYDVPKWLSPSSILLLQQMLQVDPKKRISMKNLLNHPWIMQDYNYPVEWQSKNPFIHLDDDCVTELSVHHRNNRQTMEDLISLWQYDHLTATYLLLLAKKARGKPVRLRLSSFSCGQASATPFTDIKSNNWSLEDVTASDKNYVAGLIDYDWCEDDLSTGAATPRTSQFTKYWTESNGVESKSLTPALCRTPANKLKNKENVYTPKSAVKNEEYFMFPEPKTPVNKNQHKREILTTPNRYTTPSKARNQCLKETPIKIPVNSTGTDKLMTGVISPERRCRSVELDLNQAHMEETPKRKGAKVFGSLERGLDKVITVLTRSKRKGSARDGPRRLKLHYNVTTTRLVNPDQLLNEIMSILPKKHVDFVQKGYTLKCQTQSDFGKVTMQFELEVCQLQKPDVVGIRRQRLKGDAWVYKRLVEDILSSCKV

For `CN(C)CCOc1ccc(Nc2c(S(C)(=O)=O)cnc3ccc(-c4cc(F)c(O)c(Cl)c4)nc23)cn1` [Example 25, 2-Chloro-4-(8-{6-[2-(dimethylamino)ethoxy]pyridin-3-ylamino}-7-(methylsulfonyl)-1,5-naphthyridin-2-yl)-6-fluorophenol dihydrochloride], the IC50 in the assay with T47D cells came to 0.7 µM; with 22Rv1 cells, 2.8 µM; in the assay with DU4475 cells it was 0.74 µM; in the assay with A549 cells it was 5.9 µM; against MELK, 0.019 µM; in the assay on HT1197 cells it was 21 µM.
For the compound `COc1cc(-c2ccc3ncc(S(C)(=O)=O)c(Nc4ccc(OCCN(C)C)nc4)c3n2)cc(Cl)c1O` [Example 26, 2-Chloro-4-(8-(6-(2-(dimethylamino)-ethoxy)pyridin-3-ylamino)-7-(methylsulfonyl)-1,5-naphthyridin-2-yl)-6-methoxyphenol dihydrochloride], the IC50 with T47D cells worked out at 1 µM; in the assay on 22Rv1 cells, 4.1 µM; with DU4475 cells it was 1.6 µM; in the assay with A549 cells, 3.1 µM; on MELK, 0.01 µM; with HT1197 cells, 15 µM.
With `CC(=O)c1cnc2ccc(-c3cc(Cl)c(O)c(Cl)c3)nc2c1NCC1CCN(C)CC1` [Example 27, 1-(6-(3,5-Dichloro-4-hydroxyphenyl)-4-((1-methylpiperidin-4-yl)methylamino)-1,5-naphthyridin-3-yl)ethanone dihydrochloride], the IC50 in the assay with T47D cells was found to be 0.079 µM; with 22Rv1 cells, 0.1 µM; with DU4475 cells, 0.1 µM; in the assay on A549 cells, 0.11 µM; at MELK it was 0.0007 µM; in the assay on HT1197 cells, 2 µM.
In the case of `CC(=O)c1cnc2ccc(-c3cc(Cl)c(O)c(Cl)c3)nc2c1Nc1ccc(CCN(C)C)cc1` [Example 29, 1-[6-(3,5-Dichloro-4-hydroxyphenyl)-4-{4-[2-(dimethylamino)ethyl]phenylamino}-1,5-naphthyridin-3-yl)ethanone dihydrochloride], the IC50 in the assay on T47D cells came to 0.085 µM; with 22Rv1 cells, 0.084 µM; with DU4475 cells, 0.028 µM; with A549 cells, 0.11 µM; against MELK it was 0.0026 µM; in the assay with HT1197 cells, 0.68 µM.
For the compound `CC(=O)c1cnc2ccc(-c3cc(F)c(O)c(Cl)c3)nc2c1Nc1ccc(CCN(C)C)cc1` [Example 30, 1-[6-(3-Chloro-5-fluoro-4-hydroxyphenyl)-4-{4-[2-(dimethylamino)ethyl]phenylamino}-1,5-naphthyridin-3-yl)ethanone dihydrochloride], the concentration for half-maximal inhibition (IC50) in the assay on T47D cells was determined as 0.11 µM; in the assay on 22Rv1 cells it was 0.17 µM; in the assay with DU4475 cells, 0.041 µM; in the assay on A549 cells, 0.14 µM; against MELK, 0.0059 µM; with HT1197 cells, 1.2 µM.
With `COc1cc(-c2ccc3ncc(C(C)=O)c(Nc4ccc(CCN(C)C)cc4)c3n2)cc(Cl)c1O` [Example 31, 1-(6-(3-Chloro-4-hydroxy-5-methoxyphenyl)-4-(4-(2-(dimethyl-amino)ethyl)phenylamino)-1,5-naphthyridin-3-yl) ethanone dihydrochloride], the IC50 in the assay on T47D cells is 0.41 µM; in the assay on 22Rv1 cells it was 0.65 µM; in the assay on DU4475 cells, 0.19 µM; with A549 cells it was 0.31 µM; on MELK, 0.0037 µM; in the assay on HT1197 cells, 4.4 µM.
Turning to `CN(C)[C@H]1CC[C@H](Nc2c(S(C)(=O)=O)cnc3ccc(-c4cc(F)c(O)c(Cl)c4)nc23)CC1` [Example 32, 2-Chloro-4-(8-(trans-4-(dimethylamino)-cyclohexylamino)-7-(methylsulfonyl)-1,5-naphthyridin-2-yl)-6-fluorophenol dihydrochloride], the IC50 stood at 0.024 µM in the assay with T47D cells; 0.046 µM with 22Rv1 cells; 0.0063 µM in the assay with DU4475 cells; 0.2 µM with A549 cells; 0.0016 µM against MELK; 3.1 µM with HT1197 cells.
On to `CC(=O)c1cnc2ccc(-c3cc(Cl)c(O)c(Cl)c3)nc2c1Nc1cnn(C2CCN(C)CC2)c1` [Example 33, 1-[6-(3,5-Dichloro-4-hydroxyphenyl)-4-[1-(1-methylpiperidin-4-yl)-1H-pyrazol-4-ylamino]-1,5-naphthyridin-3-yl]ethanone dihydrochloride], for which the IC50 in the assay on T47D cells was found to be 0.35 µM; in the assay on 22Rv1 cells, 0.64 µM; with DU4475 cells, 0.34 µM; in the assay on A549 cells it was 0.93 µM; at MELK it was 0.0078 µM; in the assay with HT1197 cells, 100 µM.
Turning to `CC(=O)c1cnc2ccc(-c3cc(Cl)c(O)c(Cl)c3)nc2c1Nc1ccc(CN2CCN(C)CC2)cc1` [Example 34, 1-(6-(3,5-Dichloro-4-hydroxyphenyl)-4-(4-((4-methylpiperazin-1-yl)methyl)-phenylamino)-1,5-naphthyridin-3-yl)ethanone trihydrochloride], the IC50 amounted to 0.11 µM in the assay with T47D cells; 0.21 µM with 22Rv1 cells; 0.096 µM in the assay with DU4475 cells; 0.19 µM in the assay with A549 cells; 0.0061 µM against MELK; 1.6 µM with HT1197 cells.
For `CC(=O)c1cnc2ccc(-c3cc(F)c(O)c(Cl)c3)nc2c1Nc1ccc(CN2CCN(C)CC2)cc1` [Example 35, 1-[6-(3-Chloro-5-fluoro-4-hydroxyphenyl)-4-{4-[(4-methylpiperazin-1-yl)methyl]phenylamino}-1,5-naphthyridin-3-yl]ethanone trihydrochloride], the IC50 turned out to be 0.22 µM with T47D cells; 0.65 µM in the assay with 22Rv1 cells; 0.31 µM in the assay with DU4475 cells; 0.41 µM in the assay on A549 cells; 0.037 µM on MELK; 3.8 µM with HT1197 cells.
In the case of `CC(=O)c1cnc2ccc(-c3cc(Cl)c(O)c(Cl)c3)nc2c1N1CCC(CCN2CCCC2)CC1` [Example 36, 1-[6-(3,5-Dichloro-4-hydroxyphenyl)-4-{4-[2-(pyrrolidin-1-yl)ethyl]piperidin-1-yl}-1,5-naphthyridin-3-yl]ethanone dihydrochloride], the IC50 in the assay with T47D cells stood at 0.21 µM; in the assay with 22Rv1 cells, 0.36 µM; with DU4475 cells, 0.22 µM; in the assay on A549 cells, 0.63 µM; against MELK, 0.0021 µM; in the assay on HT1197 cells it was 4.7 µM.
Consider `CC(=O)c1cnc2ccc(-c3cc(F)c(O)c(Cl)c3)nc2c1N1CCC(CCN2CCCC2)CC1` [Example 37, 1-[6-(3-Chloro-5-fluoro-4-hydroxyphenyl)-4-{4-[2-(pyrrolidin-1-yl)ethyl]piperidin-1-yl}-1,5-naphthyridin-3-yl]ethanone dihydrochloride], for which the IC50 in the assay with T47D cells stood at 0.25 µM; in the assay on 22Rv1 cells, 0.49 µM; in the assay on DU4475 cells it was 0.42 µM; with A549 cells it was 1.2 µM; against MELK, 0.01 µM; in the assay on HT1197 cells it was 7.2 µM.
`CC(=O)c1cnc2ccc(-c3cc(Cl)c(O)c(Cl)c3)nc2c1Nc1ccc(NCCN(C)C)nc1` [Example 38, 1-[6-(3,5-Dichloro-4-hydroxyphenyl)-4-{6-[2-(dimethylamino)ethylamino]pyridin-3-ylamino}-1,5-naphthyridin-3-yl]ethanone trihydrochloride]: the IC50 in the assay with T47D cells was determined as 0.11 µM; in the assay on 22Rv1 cells, 0.24 µM; in the assay with DU4475 cells, 0.069 µM; with A549 cells, 0.26 µM; on MELK it was 0.011 µM; in the assay with HT1197 cells it was 9.5 µM.
`CC(=O)c1cnc2ccc(-c3cc(F)c(O)c(Cl)c3)nc2c1Nc1ccc(NCCN(C)C)nc1` [Example 39, 1-[6-(3-Chloro-5-fluoro-4-hydroxyphenyl)-4-{6-[2-(dimethylamino)ethylamino]pyridin-3-ylamino}-1,5-naphthyridin-3-yl]ethanone trihydrochloride]: the IC50 in the assay on T47D cells was 0.12 µM; with 22Rv1 cells it was 0.38 µM; with DU4475 cells, 0.19 µM; with A549 cells, 0.44 µM; against MELK, 0.03 µM; in the assay on HT1197 cells, 10 µM.
Consider `N[C@H]1CCCN(c2ccc(Nc3c(C(=O)C4CC4)cnc4ccc(-c5cc(Cl)c(O)c(Cl)c5)nc34)cn2)C1` [Example 40, (S)-{4-[6-(3-Aminopiperidin-1-yl)pyridin-3-ylamino]-6-(3,5-dichloro-4-hydroxyphenyl)-1,5-naphthyridin-3-yl}(cyclopropyl)methanone trihydrochloride], for which the IC50 with T47D cells was 0.025 µM; with 22Rv1 cells, 0.034 µM; in the assay with DU4475 cells, 0.02 µM; in the assay with A549 cells it was 0.29 µM; at MELK it was 0.0012 µM; in the assay on HT1197 cells, 4.2 µM.
